“Also recorded” adds a separate entry of the source.
Columns and labels:
[1] = system: breast cancer cell lines (T47D, ZR751, MCF7 and BT474); test: Breast cancer cell line proliferation assay with and without AR agonist (FIG. 8), trypan blue/Cellometer count; type: cell-based; settings: 10 nM with 17 beta-Estradiol (10 nM), phenol-red free DMEM with 5% csFBS, 4 days
Procedure: Four different breast cancer cell lines (T47D, ZR751, MCF7 and BT474) were cultured both with and without AR agonist […]. […] After 3 days, an AR agonist R1881 (10 nM) and 17 beta-Estradiol (10 nM) were added to the media. […] All the conditions were carried out in triplicate and the experiments were repeated at least twice.

human breast tumor cells = test: Culture of human breast tumor cells, effect of medium components (Example 1); type: cell-based; settings: preliminary experiments; compared to Retinol
Procedure: The base WIT cell culture medium contains 0.1 mg/L Calciferol (vitamin D2) and this medium is supplemented with 2-5% fetal bovine serum (FBS) to culture human ovarian carcinoma cells (WIT-OC medium). It was hypothesized that both of these components should be removed from the cell culture medium for the successful culture of human breast cancer cells because FBS contains vitamins and hormones such as vitamin D and androgens. […] Thus, charcoal stripped fetal bovine serum (csFBS) was utilized to culture breast tumor cells because activated carbon removes non-polar material such as lipophilic (lipid-related) materials (virus, certain growth factors, hormones and cytokines) regardless of molecular weight but has little effect on salts, glucose, amino acids, etc. The WIT-OC medium also contained vitamin A acetate (Retinol) which is a weaker form of vitamin A, compared to all-trans-retinoic acid (ATRA).
Thus, in order to formulate a cell culture medium optimized to culture human breast tumor cells, as opposed to ovarian tumors, and other tumors, a WIT cell culture medium was prepared without any vitamin D, vitamin A, or androgens, and this medium was supplemented 100 nM ATRA, and 0.5-2% charcoal stripped fetal bovine serum (csFBS). We refer to this medium as WIT-BC, or WIT-BCe when estrogen is added.

SMILES: C[C@]1(O)CC[C@H]2[C@@H]3CCC4=CC(=O)CCC4=C3C=C[C@@]21C [R1881, methyltrienolone]
- effect on breast cancer cell proliferation [1]: inhibitory effect

SMILES: CC1=C(/C=C/C(C)=C/C=C/C(C)=C/C(=O)O)C(C)(C)CCC1 [ATRA, all-trans-retinoic acid]
- effect on growth/culture of breast tumor cells (human breast tumor cells): promoting the growth of the breast tumor cells; also recorded: needed for the optimum culture
